In US8324188B2, “Combinations of ET-18-O-CH3and anti-cancer agents for the treatment of cancer” (priority 2006, dated 2012):
Where “and” joins values, the source holds several entries; their conditions need not be identical. Identical values can stand only once.

What was measured:
[1] = system: LN-18; assay: WST-1 proliferation assay, LN-18; assay type: cell-based; conditions: Homo sapiens
Method: (§1) 2000 cells were plated in each well of 96-well flat bottom plates, and incubated overnight at 37 °C in 5% CO2. The growth of plated cells was measured by adding […] of WST-1 reagent (Roche Applied Sciences, Germany) to 3 control wells and measuring the absorbance at 650 nm and at 450 nm, respectively, with a SpectraMax250 plate reader. […] After this incubation, VVST-1 reagent was added to the wells and OD650-OD450 values were calculated as before. six wells were assayed for each conditions and standard deviation was determined: all experiments were performed at least three times independently. […] Six different concentrations of each drug were used in combinations index measurements and compared to +/− cells, and compared to controls without compound.

[2] = system: NCI-H460 (FAS positive); assay: WST-1 proliferation assay, NCI-H460; assay type: cell-based, human; conditions: single agent, per experiment line
Method: as §1, with “DDP and GMZ” for “Six different concentrations of each drug”, “both purchased from Sigma-aldrich Corp., St. Louis, Mo., USA. The following cell lines were used: A549 (FAS negative), NCI-H460 (FAS positive),” for “used in combinations index measurements”, “HCC827 (FAS positive), all obtained from the ATTC, Rockville, Md., USA.” for “compared to +/− cells, and compared to controls without compound.”

[3] = system: LNCaP cells; assay: flow cytometric analysis of annexin V-PE positive / 7-AAD negative LNCaP cells; assay type: cell-based, human
Method: In a further approach, 10 μM 1-O-octadecyl-2-O-methyl-glycero-3-phosphocholine (final concentration; “CHEM”) and (ionizing) radiation (5 Gray units; “RT”) were administered simultaneously to the LNCaP cells but the subsequent incubation period was extended to 24 hours. Apoptosis was measured using the Apo-ONE™ Homogenous Caspase-3/7 Assay as described above and expressed as relative fluorescence units (RFLU). The percentage of apoptotic cells was determined by flow cytometric analysis of annexin V-PE positive-stained and 7-AAD (7-Amino ActinomycinD) negative-stained cells (both purchased from BD Biosciences, San Jose, Calif., USA) according to established standard protocols. The data represent means±SEM from three independent experiments.
Next, the interaction of 1-O-octadecyl-2-O-methyl-glycero-3-phosphocholine administration (“CHEM”) and androgen deprivation (“AD”) was investigated. LNCaP cells were deprived of androgen for two days by charcoal absorption of serum according to established procedures well known in the art. CHEM was added in a final concentration of 5 μM and 10 μM, respectively.
Apoptosis was measured using the Apo-ONE™ Homogenous Caspase-3/7 Assay as described above and expressed as relative fluorescence units (RFLU). The percentage of apoptotic cells was determined via annexin V-PE/7-AAD staining as described above. The caspase-317 assay and annexin staining were performed 22 hours after CHEM treatment.

[4] = system: HCC827 (FAS positive); assay: WST-1 proliferation assay, HCC827; assay type: cell-based, human; conditions: single agent, per experiment line
Method: as §1, with “DDP and GMZ” for “Six different concentrations of each drug”, “both purchased from Sigma-aldrich Corp., St. Louis, Mo., USA. The following cell lines were used: A549 (FAS negative), NCI-H460 (FAS positive),” for “used in combinations index measurements”, “HCC827 (FAS positive), all obtained from the ATTC, Rockville, Md., USA.” for “compared to +/− cells, and compared to controls without compound.”

[5] = system: LNCaP androgen-sensitive human prostate adenocarcinoma cells; assay: trypan blue dye exclusion, living LNCaP cells; assay type: cell-based
Method: FIG. 1. Depicts the in vitro effects of 1-O-octadecyl-2-O-methyl-glycero-3-phosphocholine (final concentration 10 μM), (ionizing) radiation (absorbed dose of 5 Gray units; indicated as “RT”), and a combination thereof on programmed cell death (apoptosis) and the survival rate of LNCaP androgen-sensitive human prostate adenocarcinoma cells. Apoptosis was determined using the Apo-ONE™ Homogenous Caspase-317 Assay, Promega, Inc., Madison, Wis., USA according to the manufacturers instructions. The percentage of living cancer cells was estimated by means of trypan blue dye exclusion as described (Freshney, R. I. (1994) Culture of Animal Cells: A Manual of Basic Technique. 3rd Ed. Wiley-Liss. New York. USA). The cells were exposed to radiation six hours after (FIG. 1A), concomitantly with (FIG. 1B), or six hours before administration of 1-O-octadecyl-2-O-methyl-glycero-3-phospho-choline (FIG. 1C). The caspase assay was performed 12 hours after exposure to radiation. The respective data shown represent the average of two independent experiments.
First, the in vitro effects of 1-O-octadecyl-2-O-methyl-glycero-3-phosphocholine, (ionizing) radiation, and a combination thereof on programmed cell death (apoptosis) and the survival rate of LNCaP androgen-sensitive human prostate adenocarcinoma cells were measured. The LNCaP cell line was established from a metastatic lesion of the adenocarcinoma. The cells were treated with a final concentration of 10 μM 1-O-octadecyl-2-O-methyl-glycero-3-phosphocholine and (ionizing) radiation corresponding to an absorbed dose of 5 Gray units.
Apoptosis was determined using the Apo-ONE™ Homogenous Caspase-3/7 Assay, Promega, Inc., Madison, VV1, USA according to the manufacturers instructions. The percentage of living tumor cells was estimated by means of trypan blue dye exclusion as described (Freshney, R. I. (1994) Culture of Animal Cells: A Manual of Basic Technique. 3rd Ed. Wiley-Liss. New York. USA)
The cells were exposed to radiation six hours after (FIG. 1A), concomitantly with (FIG. 1B), or six hours before administration of 1-O-octadecyl-2-O-methyl-glycero-3-phospho-choline (FIG. 1C). The caspase assay was performed 12 hours after exposure to radiation. The respective data shown represent the average of two independent experiments.

## CCCCCCCCCCCCCCCCCCOCC(COP(=O)([O-])OCC[N+](C)(C)C)OC (racemic) [AP-121, 1-O-octadecyl-2-O-methyl-glycero-3-phosphocholine]
[1]
  IC50: 1300 nM
[2]; Homo sapiens, NCI-H460, NCI-H460
  IC50: 1500 nM
[2]; NCI-H460
  IC50: 1400 nM and 2000 nM
[3]; AD (androgen deprivation, two days) + 5 μM CHEM, AD alone 12.6
  % Annexin V-PE pos. cells: 15.4%
[3]; AD + 10 μM CHEM
  % Annexin V-PE pos. cells: 27.4%
[3]; AD + R1881 (two days prior) + 5 μM CHEM
  % Annexin V-PE pos. cells: 14.6%
[3]; AD + R1881 (two days prior) + 10 μM CHEM
  % Annexin V-PE pos. cells: 21.6%
[3]; CHEM 10 μM + RT 5 Gray simultaneously, 24 hours, means±SEM, p < 0.0001 vs CHEM and RT
  % Annexin V-PE pos. cells: 31.7 ± 1.0 %
[3]; CHEM 10 μM alone, 24 hours, means±SEM, three experiments, Control 3.6 ± 0.2
  % Annexin V-PE pos. cells: 18.6 ± 1.0%
[3]; Contr. + 5 μM CHEM, 22 hours after CHEM, Contr. 9.6
  % Annexin V-PE pos. cells: 13.0%
[3]; Contr. + 10 μM CHEM, 22 hours after CHEM
  % Annexin V-PE pos. cells: 17.5%
[3]; androgen-deprived LNCaP cells, 5 and 10 μM, not reversed by synthetic androgen
  apoptotic response: dose-dependent significant increase
[4]
  IC50: 2400 nM and 850 nM and 1600 nM
[5]; 10 μM administered six hours after radiation (5 Gray), combined treatment (FIG. 1C)
  survival of the cells: about 40%
[5]; 10 μM administered six hours prior to radiation (5 Gray), combined treatment, untreated controls about 85% (FIG. 1A)
  survival of the tumor cells: about 45%
[5]; 10 μM concomitant with radiation (5 Gray), untreated controls about 86% (FIG. 1B)
  survival rate: about 55%
[5]; 10 μM, individual chemical treatment (FIG. 1B)
  survival rate: about 50%
[5]; 10 μM, individual chemical treatment (FIG. 1C)
  survival rate: about 45%
[5]; 10 μM, individual treatment without radiation (FIG. 1A)
  survival rate: about 60%
